Laboratory results as given in ChEMBL document CHEMBL1201862, “PubChem BioAssay data set” (2004).
Calls of active or inactive are those of the source.

Experiments:
[1] = T. cruzi growth inhibition in host cells, dose response, cell-based, plate reader, dry powder, set 2 (AID 652275); format: functional
[2] = off-target signal loss in HeLa-CEM21 co-culture – HeLa F-luc CTL cells, cherry-picked, counter-screen for HIV-1 Env fusion inhibitor project, dose response (AID 652040); format: functional, cell-based;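 also: potency for signal decrease marking cytotoxic or nonspecific inhibition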
Paired box protein Pax-8 = Paired box protein Pax-8 (Homo sapiens, UniProt Q06710); experiment: inhibitors of PAX8-driven TPO luciferase reporter, dose response, RMG-I cells, cherry-pick (AID 687027); format: functional, cell-based;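 also: luciferase reporter driven by Pax8 target thyroperoxidase promoter measured by SteadyGlo luminescence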
Sequence of Paired box protein Pax-8 (Q06710 whole entry): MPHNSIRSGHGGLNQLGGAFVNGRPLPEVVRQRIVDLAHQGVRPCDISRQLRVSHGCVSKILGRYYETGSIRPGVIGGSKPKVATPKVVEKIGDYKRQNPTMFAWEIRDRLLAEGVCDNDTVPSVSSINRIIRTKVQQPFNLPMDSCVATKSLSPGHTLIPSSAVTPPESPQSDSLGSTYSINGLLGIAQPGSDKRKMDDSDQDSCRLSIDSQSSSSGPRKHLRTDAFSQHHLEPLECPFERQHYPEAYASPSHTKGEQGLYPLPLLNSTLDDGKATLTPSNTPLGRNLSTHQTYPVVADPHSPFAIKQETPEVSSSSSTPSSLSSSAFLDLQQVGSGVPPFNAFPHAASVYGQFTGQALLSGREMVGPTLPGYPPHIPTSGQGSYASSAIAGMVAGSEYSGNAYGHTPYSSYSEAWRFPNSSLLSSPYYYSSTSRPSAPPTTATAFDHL

H4 = experiment: Luminescence Cell-Based Dose Response HTS to Identify Activators of 5'UTR Stem-Loop Driven Prion Protein mRNA Translation in H4 Neuroglioblastoma Cells. [Related pubchem assays: 1829 (Project Summary), 1814 (Primary HTS)]; format: functional; conditions: Homo sapiens
[3] = Luminescence Cell-Based Dose Confirmation HTS to Identify Activators of 5'UTR Stem-Loop Driven Alpha-Synuclein mRNA Translation in H4 Neuroglioblastoma Cells. [Related pubchem assays: 1829 (Project Summary), 1814 (Primary HTS)]; format: functional
[4] = Luminescence Cell-Based Dose Response HTS to Identify Activators of Luciferase Translation or Activity in H4 […] Cells. [Related pubchem assays: 1829 (Project Summary), 1814 (Primary HTS)]; format: functional
[5] = HeLa cell cytotoxicity, dose response, cytotoxicity control for MgcRacGAP inhibitor project (AID 624300); format: functional
[6] = target: T1, Rac GTPase-activating protein 1 (Homo sapiens, UniProt Q9H0H5); experiment: MgcRacGAP GTPase-activating activity inhibitors, confirmation, biochemical, ADP Hunter fluorescence, primary and confirmatory (AID 624330); format: functional
T1 sequence (Q9H0H5 whole entry): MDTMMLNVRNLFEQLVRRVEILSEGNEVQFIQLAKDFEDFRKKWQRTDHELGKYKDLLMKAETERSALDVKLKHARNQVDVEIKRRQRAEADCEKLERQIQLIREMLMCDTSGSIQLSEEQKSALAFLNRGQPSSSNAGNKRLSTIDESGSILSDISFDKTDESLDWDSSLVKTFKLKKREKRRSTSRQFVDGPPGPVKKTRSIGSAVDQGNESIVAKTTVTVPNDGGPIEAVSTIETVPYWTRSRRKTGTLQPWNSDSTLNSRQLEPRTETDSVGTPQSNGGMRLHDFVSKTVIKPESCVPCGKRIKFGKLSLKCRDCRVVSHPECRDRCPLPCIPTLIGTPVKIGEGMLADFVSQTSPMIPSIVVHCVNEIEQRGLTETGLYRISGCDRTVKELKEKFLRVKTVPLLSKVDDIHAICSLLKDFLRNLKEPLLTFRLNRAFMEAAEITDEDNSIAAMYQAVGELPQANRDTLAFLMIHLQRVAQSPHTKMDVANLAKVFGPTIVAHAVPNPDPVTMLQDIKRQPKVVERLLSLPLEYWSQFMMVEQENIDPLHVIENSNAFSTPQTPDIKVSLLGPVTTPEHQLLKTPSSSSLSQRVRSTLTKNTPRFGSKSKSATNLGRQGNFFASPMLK

[7] = inhibitors of clade B AD8 Env fusion, dose response, cell-based, cherry-pick (AID 652062); format: functional;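 also: luciferase signal from cell-cell fusion driven by HIV-1 clade B AD8 Env; potency is for inhibitors of fusion seen as a drop in luminescence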
[8] = ZM109 Env clade C HIV-1 fusion inhibitors, dose response, HeLa effector, CEM target cells, luciferase, cherry-pick (AID 652058); format: functional, cell-based
[9] = inhibitors of HIV Env-driven cell fusion, dose response, cherry-pick (AID 652057); format: functional, cell-based
[10] = HEp-2 cell cytotoxicity, dose response, cytotoxicity control for RSV inhibitor project, HTS (AID 2410); format: functional; conditions: human respiratory syncytial virus
[11] = target: T2, Sentrin-specific protease 7 (Homo sapiens, UniProt Q9BQF6); format: functional;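 also: Luminescence-based dose-response confirmation of ultra-high-throughput screening hits, measuring inhibition of SENP7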
T2 sequence (Q9BQF6 whole entry): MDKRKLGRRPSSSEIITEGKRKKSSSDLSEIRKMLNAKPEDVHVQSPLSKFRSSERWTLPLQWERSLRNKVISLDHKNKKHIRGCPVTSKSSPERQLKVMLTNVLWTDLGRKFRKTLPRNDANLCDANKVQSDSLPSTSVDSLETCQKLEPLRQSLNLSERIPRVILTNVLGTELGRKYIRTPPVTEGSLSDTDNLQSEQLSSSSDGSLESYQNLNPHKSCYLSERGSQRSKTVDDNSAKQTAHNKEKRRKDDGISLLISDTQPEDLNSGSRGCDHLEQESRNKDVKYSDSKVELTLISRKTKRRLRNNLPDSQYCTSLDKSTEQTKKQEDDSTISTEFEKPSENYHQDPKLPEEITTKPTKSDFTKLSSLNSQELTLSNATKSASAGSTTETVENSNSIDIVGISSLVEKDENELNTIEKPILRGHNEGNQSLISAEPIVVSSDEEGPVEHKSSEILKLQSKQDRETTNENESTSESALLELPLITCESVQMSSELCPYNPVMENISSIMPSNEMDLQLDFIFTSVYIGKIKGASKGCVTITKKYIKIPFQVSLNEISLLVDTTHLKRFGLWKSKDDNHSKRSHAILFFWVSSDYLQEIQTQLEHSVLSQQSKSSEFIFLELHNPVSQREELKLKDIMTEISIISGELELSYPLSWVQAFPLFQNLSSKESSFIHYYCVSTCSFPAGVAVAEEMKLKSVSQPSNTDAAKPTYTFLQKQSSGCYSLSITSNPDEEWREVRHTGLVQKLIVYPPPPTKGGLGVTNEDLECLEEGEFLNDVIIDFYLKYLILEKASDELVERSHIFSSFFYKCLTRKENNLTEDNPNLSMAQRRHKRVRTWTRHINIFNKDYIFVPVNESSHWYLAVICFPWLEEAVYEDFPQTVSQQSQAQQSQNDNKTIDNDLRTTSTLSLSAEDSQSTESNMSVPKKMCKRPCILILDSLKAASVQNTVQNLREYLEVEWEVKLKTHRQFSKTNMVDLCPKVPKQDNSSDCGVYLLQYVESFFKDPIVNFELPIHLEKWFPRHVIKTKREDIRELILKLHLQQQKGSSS

Caspase-3 = target: T3, Caspase-3 (Homo sapiens, UniProt P42574); format: functional;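 also: Dose-response selectivity test against caspase-3 for candidate inhibitors of sentrin-specific proteases (SENPs)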
T3 sequence (P42574 whole entry): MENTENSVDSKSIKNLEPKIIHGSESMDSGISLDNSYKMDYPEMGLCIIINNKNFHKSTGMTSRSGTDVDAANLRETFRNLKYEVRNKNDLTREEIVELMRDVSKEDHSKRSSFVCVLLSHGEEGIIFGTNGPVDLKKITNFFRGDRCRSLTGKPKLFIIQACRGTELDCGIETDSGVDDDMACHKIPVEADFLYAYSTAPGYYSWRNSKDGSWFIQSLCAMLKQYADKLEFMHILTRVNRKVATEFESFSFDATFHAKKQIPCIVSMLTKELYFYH

Streptococcus = experiment: Group A Streptococcus viability loss, dose response, counter-screen for streptokinase expression inhibitor project, luminescence, BacTiterGlo (AID 1915); format: functional, organism-based;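 also: potency for reduction of bacterial viability or growth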
[12] = target: T4, Sentrin-specific protease 8 (Homo sapiens, UniProt Q96LD8); format: functional;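 also: luminescence read-out of SENP8 inhibition, dose-response confirmation following an ultra-high-throughput screen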
T4 sequence (Q96LD8 whole entry): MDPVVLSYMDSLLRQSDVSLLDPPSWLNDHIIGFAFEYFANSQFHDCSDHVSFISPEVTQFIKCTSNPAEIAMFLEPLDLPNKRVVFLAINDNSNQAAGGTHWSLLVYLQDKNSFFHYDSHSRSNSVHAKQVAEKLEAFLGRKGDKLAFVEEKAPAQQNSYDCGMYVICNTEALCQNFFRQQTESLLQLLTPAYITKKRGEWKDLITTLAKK

[13] = system: Streptococcus sp. 'group A'; experiment: growth inhibition of control SK(-) GAS strain, dose response, counter-screen for streptokinase expression inhibitor project, luminescence, kanamycin, BacTiterGlo, confirmation (AID 1900); format: functional, organism-based
[14] = target: T5, Sentrin-specific protease 6 (Homo sapiens, UniProt Q9GZR1); format: functional;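 also: Luminescence-based dose-response confirmatory assay of SENP6 inhibition, following up an ultra-high-throughput screen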
T5 sequence (Q9GZR1 whole entry): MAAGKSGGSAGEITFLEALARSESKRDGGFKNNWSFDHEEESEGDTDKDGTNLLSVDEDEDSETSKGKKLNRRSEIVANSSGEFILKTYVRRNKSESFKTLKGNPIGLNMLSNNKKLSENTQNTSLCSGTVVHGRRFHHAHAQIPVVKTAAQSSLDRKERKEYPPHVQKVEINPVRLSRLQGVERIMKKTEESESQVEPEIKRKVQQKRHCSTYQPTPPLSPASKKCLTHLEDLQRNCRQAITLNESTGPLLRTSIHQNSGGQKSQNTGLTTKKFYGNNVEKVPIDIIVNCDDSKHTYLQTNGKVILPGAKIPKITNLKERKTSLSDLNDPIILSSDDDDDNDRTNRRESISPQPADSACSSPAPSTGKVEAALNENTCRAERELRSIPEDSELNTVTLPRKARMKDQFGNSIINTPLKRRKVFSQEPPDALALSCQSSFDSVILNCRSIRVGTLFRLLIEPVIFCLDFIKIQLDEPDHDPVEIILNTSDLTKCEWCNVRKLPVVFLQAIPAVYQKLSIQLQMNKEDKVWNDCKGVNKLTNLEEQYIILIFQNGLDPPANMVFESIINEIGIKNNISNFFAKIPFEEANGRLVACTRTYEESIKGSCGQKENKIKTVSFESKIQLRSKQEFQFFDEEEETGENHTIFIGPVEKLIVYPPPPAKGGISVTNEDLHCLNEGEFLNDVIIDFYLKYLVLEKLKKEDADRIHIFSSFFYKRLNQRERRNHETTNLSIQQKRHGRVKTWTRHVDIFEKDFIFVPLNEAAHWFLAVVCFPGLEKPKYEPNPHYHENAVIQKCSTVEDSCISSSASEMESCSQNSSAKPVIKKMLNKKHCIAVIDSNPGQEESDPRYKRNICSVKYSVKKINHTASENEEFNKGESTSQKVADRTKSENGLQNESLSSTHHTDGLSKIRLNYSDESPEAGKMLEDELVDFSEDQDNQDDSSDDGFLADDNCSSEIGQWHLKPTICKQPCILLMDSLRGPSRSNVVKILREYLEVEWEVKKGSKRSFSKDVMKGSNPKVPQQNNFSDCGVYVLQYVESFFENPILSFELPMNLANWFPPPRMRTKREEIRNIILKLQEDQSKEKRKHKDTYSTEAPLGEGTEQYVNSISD

Streptokinase A = target: T6, Streptokinase A (Streptococcus pyogenes serotype M1, UniProt P10520); experiment: S. pyogenes streptokinase expression inhibitors, potency, dose response, plasminogen activation absorbance, OD405 (AID 1914); format: functional, Streptococcus pyogenes M1 GAS;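 also: secreted streptokinase activity via plasminogen activation per viability signal from cell pellet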
T6 sequence (P10520 whole entry): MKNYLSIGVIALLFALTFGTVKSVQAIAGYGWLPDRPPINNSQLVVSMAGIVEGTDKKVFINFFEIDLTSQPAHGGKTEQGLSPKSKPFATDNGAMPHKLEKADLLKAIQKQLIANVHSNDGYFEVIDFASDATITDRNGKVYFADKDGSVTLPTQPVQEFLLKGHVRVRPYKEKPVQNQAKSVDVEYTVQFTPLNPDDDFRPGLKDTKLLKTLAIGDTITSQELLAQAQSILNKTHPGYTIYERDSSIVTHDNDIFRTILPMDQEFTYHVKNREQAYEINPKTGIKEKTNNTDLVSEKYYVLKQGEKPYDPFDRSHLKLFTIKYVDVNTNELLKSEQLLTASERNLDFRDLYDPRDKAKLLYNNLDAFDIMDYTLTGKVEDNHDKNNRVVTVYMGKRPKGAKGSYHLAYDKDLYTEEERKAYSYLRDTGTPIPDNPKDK

## CN(C)CC#Cc1cccc(-c2nc(C(=O)N3CCN(Cc4ccccc4)CC3)cc3c2[C@H](CCO)N([S+]([O-])C(C)(C)C)C3)c1 (stereo partly drawn)
[1]
  AC50: 6.1 µM (active)

## Cc1ccc2c(c1)c1c3n2CCN(CC(N)=O)C3CCC1 (stereo not drawn)
[2]
  AC50: 7.87 µM (active)
Paired box protein Pax-8
  AC50: 6.82 µM (active)

## Cc1cccc(C(=N)NOC(=O)N2c3ccccc3Sc3ccccc32)c1
H4
  EC50: > 120 µM (not active)
[3]
  EC50: > 120 µM (not active)
[4]
  EC50: > 120 µM (not active)
[5]
  CC50: 92.6 µM (active)

## COc1cc(-c2ncc3ccccn23)cc(OC)c1OC
[6]
  IC50: 123 µM (active)
[5]
  CC50: 100 µM (active)

## Cc1ccccc1S(=O)(=O)N1C[C@H]2[C@H]3C(=O)N(C4CCCCC4)C(=O)[C@H]3CC(=O)[C@H]2[C@@H]1c1ccc(Cl)cc1
[7]
  AC50: 2.81 µM (active)
[2]
  AC50: 1.2 µM (active)
[8]
  AC50: 0.874 µM (active)
[9]
  AC50: 0.396 µM (active)

## Cc1ccccc1CN(C)C[C@H]1Oc2c(NC(=O)c3ccncc3)cccc2C(=O)N([C@@H](C)CO)C[C@@H]1C
[1]
  AC50: 0.0559 µM (active)

## CCOC(=O)Cc1c(C)c2c(O)cc(O)cc2oc1=O
cells
  IC50: 15.1 µM (active)
[10]
  CC50: 47.7 µM (active)

## CCn1c(SCc2ccccc2Cl)nc2ccccc21
[11]
  IC50: 11.3 µM (active)
Caspase-3
  IC50: 40.6 µM (active)
Streptococcus
  EC50: > 150 µM (not active)
[12]
  IC50: 29.3 µM (active)
[13]
  EC50: 16.5 µM (active)
[14]
  IC50: 17.5 µM (active)
Streptokinase A
  EC50: 21.4 µM (active)

## COc1cc(C(C[N+](=O)[O-])c2c(N)n(C)c(=O)n(C)c2=O)ccc1O (stereo not drawn)
[6]
  IC50: 111 µM (active)
[5]
  CC50: 80.4 µM (active)

## COc1ccc2nc(/C=N/NC(=O)[C@H](C)NC(=O)OC(C)(C)C)ccc2c1
cells
  IC50: 31.9 µM (active)

## CCOc1ccc(-c2cc(C(=O)O)c3ccccc3n2)c(OCC)c1
cells
  IC50: 19.7 µM (active)
[10]
  CC50: 42 µM (active)

## CN(C[C@H](Cc1ccccc1)N(C[C@H](Cc1ccccc1)N(CC1(c2ccccc2)CC1)N=O)N=O)N=O
[7]
  AC50: 7.28 µM (active)
[2]
  AC50: 3.05 µM (active)
[8]
  AC50: 3.53 µM (active)
[9]
  AC50: 2.98 µM (active)

## COc1ccc(NC(=O)Nc2ccc3c(c2)N(C)C(=O)CS3)cc1Cl
[7]
  AC50: 11.8 µM (active)
[2]
  AC50: > 70 µM (inactive)
[8]
  AC50: 3.37 µM (active)
[9]
  AC50: 31.1 µM (active)

## COc1ccc(S(=O)(=O)N(C)C[C@H]2OCCCC[C@H](C)Oc3ccc(N(C)C)cc3C(=O)N([C@H](C)CO)C[C@@H]2C)cc1
[1]
  AC50: 9.32 µM (active)

## CC(C)N1C[C@@H](CN(C)Cc2ccc(Cl)cc2)Oc2c(NC(=O)c3ccncc3)cc(F)cc2C1=O
[1]
  AC50: 0.00326 µM (active)
